The results in this text go back to patent publication US20110098180A1, “Herbicide-Resistant Plants, And Polynucleotides And Methods For Providing Same” (United States Department of Agriculture, priority 2002, published 2011).

For assay [1], the system named is Arabidopsis thaliana transformed with Hydrilla PDS constructs. Nature of the assay: Herbicide resistance of transformed Arabidopsis T1 seedlings. It counts as in vivo. From the text: Binary vectors for pds expression in plants included the 1-323 by upstream of the beginning of the putative mature protien, which is assumed to encode for chloroplast signal peptide/s. pHy4ATG5 was mutagenized at the amino acid 304 of pds to replace Arginine by Histidine, Threonine, Serine, or Cysteine, using the QuickChange™ Site-Directed Mutagenesis Kit of Stratagene (La Jolla, Calif.) and the same mutagenesis primers used for p3ORF-ATG indicated in the previous section. The resulting plasmids in this case were pHy4His, pHy4Thr, pHy4Ser and pHy4Cys. A 1.8 kb fragment between the TOPO4 SpeI site and the pds SspI site containing the pds gene was cloned into pCAMBIA1303 (CAMBIA, Canberra, Australia) SpeI-Pm1I sites (SspI and PmlI are compatible) replacing the 2.5 kb gus:mgfp; the resulting plasmid was designated pPDATG1303. The same strategy was used for each of the clones containing amino acid changes, generating plasmids pPDHIS1303, pPDTHR1303, pPDSER1303 and pPDCYS1303. The selectable marker in these constructs is the hygromycin phosphotransferase gene (hptll) for resistance to hygromycin in plants.
Arabidopsis thaliana ecotype Columbia (Col-0) was transformed with Agrobacterium using the floral dip method (Clough, S. J. and Bent, A. F. (1998) Floral dip: a simplified method for Agrobacterium-mediated transformation of Arabidopsis thaliana. The Plant Journal 16(6):735-743). Plants were grown at 21° C. with 16 h/8 h day and night until flowering and continuous light after inoculation (plants inoculated with Agrobacterium were denominated T0 plants). Selection of T1 (seeds produced by T0 plants) seedlings was performed on Petri plates with half-strength Murashige and Skoog (MS) medium (Murashige, T. and Skoog, F. (1962) A revised medium for rapid grOwth and bioassays with tobacco tissue cultures. Physiologia plantarum 15:473-497) supplemented with 1% sucrose, 0.2% phytagel and 300 μg/ml cefotaxime. […]
DNA was extracted according to Dilworth and Frey (2000)foreign genes detected by PCR. […]

The target in assay [2] is Hydrilla PDS Arg^304 Arginine (wildtype) (Hydrilla verticillata, UniProt Q66PY0). Description: Fluridone enzyme inhibition assay, non-His-tagged PDS (Table 1). It counts as biochemical. To be noted: Arginine at 304 (reference). The protocol:
The expression constructs in Table 1 were derived from an original clone of the susceptible PDS gene from Hydrilla and then the Arg^304 was mutated to the listed amino acid. Expression was under the control of the lac promoter […] with the initiation codon of the LacZalpha-ccdB gene in the pCR4-TOPO vector (Invitrogen Inc., CA, Cat. #K4575-01).
All mutagenesis was performed, unless stated otherwise, using the TOPO-vector containing the wildtype (H4) PDS-sequence, which was extracted from an overnight culture with the Qiagen Plasmid Prep Kit as described above. The amount of the extracted plasmid was diluted to 10 ng/μl and used as template in a mutagenesis-procedure using the QuikChange Site-directed Mutagenesis Kit (Stratagene, Calif., #200518). The design of the mutagenesis-primers was conducted according to the manufacturers protocol to enable the specific change of Arg^304-codon to code for the desired amino acid. Primers (purchased from MWG-Biotech) and their introduced amino acid change are listed below with the changed codon underlined:
The reactions were performed according to the manufacturers protocol. […] Sequences were assembled and analyzed using Seqman. […]
Phytoene desaturase activity and its inhibition by herbicides was determined using an in vitro system using components derived from the in vivo production of phytoene and phytoene desaturase proteins. […]

Chain of Hydrilla PDS Arg^304 Arginine (wildtype) (Q66PY0 1-580): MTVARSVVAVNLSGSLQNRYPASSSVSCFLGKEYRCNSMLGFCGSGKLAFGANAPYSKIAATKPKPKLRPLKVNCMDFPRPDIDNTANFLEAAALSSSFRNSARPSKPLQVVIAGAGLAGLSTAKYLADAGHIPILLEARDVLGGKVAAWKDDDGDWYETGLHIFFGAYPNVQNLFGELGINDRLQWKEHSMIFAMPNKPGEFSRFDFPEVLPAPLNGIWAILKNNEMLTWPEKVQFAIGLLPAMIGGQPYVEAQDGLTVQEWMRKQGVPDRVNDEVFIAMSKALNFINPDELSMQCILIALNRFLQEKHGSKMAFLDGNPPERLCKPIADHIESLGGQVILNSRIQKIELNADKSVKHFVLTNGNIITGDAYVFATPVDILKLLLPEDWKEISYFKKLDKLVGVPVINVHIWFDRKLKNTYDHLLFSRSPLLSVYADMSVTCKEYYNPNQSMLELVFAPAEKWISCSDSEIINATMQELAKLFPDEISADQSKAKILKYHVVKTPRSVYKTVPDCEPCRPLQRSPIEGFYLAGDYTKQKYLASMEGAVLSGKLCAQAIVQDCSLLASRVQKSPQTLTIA

In the case of `CNc1cnn(-c2cccc(C(F)(F)F)c2)c(=O)c1Cl` [Norflurazon], the “confirmed transformed plants resistant to the herbicide” value was found to be 1 in assay [1] (construct pPDATG1303), 3 in assay [1] (construct pPDSER1303) and 1 in assay [1] (construct pPDTHR1303).
For Fluridone, in assay [2], the R/S is 1.
